The source of these data is US10834950B2, “Organic compounds” (GIVAUDAN SA, priority 2013, dated 2020).

A short description of test [1]: Beef bouillon tasting by a panel of experienced tasters. Conditions: 40 ppb added to beef bouillon. As for the experimental part: A beef bouillon was prepared using bouillon cubes obtained from a local supermarket.
A short description of test [2]: Milk drink (semi skim milk) tasting by panel. Conditions: 5 ppm added to semi skim milk drink.
Test [3] is described as follows: Umami base flavour (aqueous NaCl, MSG, ribonucleotides) tasting by panel.
Test [4] can be described thus: Diluted soy sauce tasting by panel. Conditions: 5 ppm added to diluted soy sauce.
Setting [5] is: 5 ppm added to umami base flavour.

Molecules are shown by their SMILES.

In the case of `CCCCCC/C=C\CCCC(=O)NC(Cc1ccc(O)cc1)C(=O)O` (stereo not drawn) [Example 2, (Z)-2-(Dodec-5-enamido)-3-(4-hydroxyphenyl)propanoic acid], in test [1], the “taste of bouillon compared to the reference (panel)” value was “slightly more umami, slightly more bitter and sweeter than the reference”.

In the case of `CCCCCC/C=C\CCCC(=O)NC(Cc1c[nH]c2ccccc12)C(=O)O` (stereo not drawn) [(Z)-2-(dodec-5-enamido)-3-(1H-indol-3-yl)propanoic acid], the “taste of milk drink compared to the reference (panel)” value in test [2] is recorded as “slightly increased creamy than the reference”. The “taste of umami base compared to the reference (panel)” value in test [3] (setting [5]) is recorded as “more umami than the reference”.

As for `CCCCCCCCCCCC(=O)NC(Cc1c[nH]c2ccccc12)C(=O)O` (stereo not drawn) [2-(dodecanoylamino)-3-(1H-indol-3-yl)propanoic acid], the “taste of umami base compared to the reference (panel)” value in test [3] (20 ppm added to umami base flavour) was “more fatty mouthfeel than the reference”.

For `CCCCCCCCCCCC(=O)NC(Cc1ccccc1)C(=O)O` (stereo not drawn) [Example 3, 2-(Dodecanoylamino)-3-phenylpropanoic acid], the “taste of umami base compared to the reference (panel)” value in test [3] (50 ppm added to umami base flavour) was “more umami, and thicker, possessed a lot of mouthfeel and a nice body, and provided a cleaner taste than the reference”.

For `CCCCCCCCCCCCCC(=O)NC(Cc1c[nH]c2ccccc12)C(=O)O` (stereo not drawn) [3-(1H-indol-3-yl)-2-tetradecanamidopropanoic acid], the “taste of milk drink compared to the reference (panel)” value in test [2] is “very creamy aftertaste, and a nice and slightly dryness at the front compared to the reference”. Moreover, the “taste of umami base compared to the reference (panel)” value in test [3] (setting [5]) was “more umami than the reference”. In addition, the “taste of soy sauce compared to the reference (panel)” value in test [4] is “more mouthfeel, and fuller compared to the reference”.

As for `CCCCCC/C=C\CCCC(=O)NC(Cc1ccccc1)C(=O)O` (stereo not drawn) [Example 1, (Z)-2-(Dodec-5-enamido)-3-phenylpropanoic acid], the “taste of bouillon compared to the reference (panel)” value in test [1] was “more umami, slightly more sweet, and the overall flavor profile lasts longer than the reference”.
